Holding throughout (experiment): Field trial with maize, herbicidal action
Type in all cases: in vivo

Assay [1] has as its system Brachiaria plantaginea. The conditions noted are these: application 2-leaf stage, scoring 28 days after application. As for the experimental part: (§1) Transgenic maize plants with a resistance to one or more herbicides (A) together with typical weed plants were grown in the open on 2×5 m plots under natural field conditions; alternatively, weed infestation occurred naturally when the maize plants were grown.
(§2) 2, 4, 6 and 8 weeks after the application, the herbicidal activity of the active substances or active substance mixtures was scored visually with reference to the treated plots in comparison to untreated control plots. The damage to, and the development of, all aerial parts of the plants was recorded. Scoring was done on the basis of a percentage sale (100% action=all plants destroyed; 50% action=50% of the plants and green parts of the plants destroyed; 0% action=no recognizable effect=like control plot. The mean of the score values of in each case 4 plots was calculated.

Assay [2] has as its system Convolvulus arvensis. To be noted: application 3- to 4-leaf stage, scoring 28 days after application. Here is the method: as §1, §2
Assay [3] relates to Sorghum halepense. To be noted: application 4-leaf stage, scoring 28 days after application. Here is the method:
as §1, §2

One compound from patent publication US8772199B2, “Herbicidal compositions for tolerant or resistant maize crops” (Bayer Intellectual Property GmbH, priority 1998, dated 2014) can be followed below.

Structures can show the parent of a compound that is named as a salt.

For `CP(=O)(O)CCC(N)C(=O)O` (stereo not shown) [(A1.2), glufosinate-monoammonium salt], the “Herbicidal action (%) against Brachiaria plantaginea” value in assay [1] (150 g of a.s./ha) was determined as 5%; in assay [1] (300 g of a.s./ha), 45%; in assay [1] (600 g of a.s./ha), 70%. The “Herbicidal action (%) against Convolvulus arvensis” value came to 0% in assay [2] (200 g of a.s./ha) and 20% in assay [2] (400 g of a.s./ha). In addition, the “Herbicidal action (%) against Sorghum halepense” value in assay [3] (300 g of a.s./ha) came out at 15%; in assay [3] (500 g of a.s./ha) it was 53%.
